pIC50, pKi: −log10 of the molar value. Values joined by “and” are separate entries in the source; they are usually repeats but may differ in a detail not shown here. Identical values can stand only once. Like-named read-outs stand apart in the source and are kept apart here. Where a SMILES comes first, the peptide text is derived from it.
Assays:
myeloperoxidase (MPO) [1] = target: T1, myeloperoxidase (MPO) (Homo sapiens, UniProt P05164); assay: MPO chlorinating activity (Celestine Blue B assay); type: biochemical; details: for pIC50: 0.8 nM MPO heme, 200 μM CB, 150 mM NaCl, 50 μM H2O2, 50 mM Na-acetate pH 5.5, 5 min preincubation
T1 construct: Native myeloperoxidase (MPO) was obtained from human leukocyte extract by successive chromatography on heparin-Sepharose and phenyl-agarose; from tissue; host or cells: human leukocyte extract
T1 sequence (P05164 279-745 limits assumed): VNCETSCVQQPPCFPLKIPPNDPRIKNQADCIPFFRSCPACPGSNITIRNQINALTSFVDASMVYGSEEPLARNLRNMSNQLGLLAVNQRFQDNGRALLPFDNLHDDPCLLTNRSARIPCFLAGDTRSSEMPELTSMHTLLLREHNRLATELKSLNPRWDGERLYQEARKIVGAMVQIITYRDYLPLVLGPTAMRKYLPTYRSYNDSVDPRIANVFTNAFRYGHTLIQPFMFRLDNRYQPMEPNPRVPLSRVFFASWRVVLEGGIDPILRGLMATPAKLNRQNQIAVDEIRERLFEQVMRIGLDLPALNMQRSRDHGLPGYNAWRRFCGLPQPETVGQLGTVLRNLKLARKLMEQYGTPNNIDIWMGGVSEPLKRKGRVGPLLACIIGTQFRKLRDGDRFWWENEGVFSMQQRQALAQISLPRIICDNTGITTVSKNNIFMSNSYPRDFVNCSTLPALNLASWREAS
T1 sequence (P05164 165-273 limits assumed): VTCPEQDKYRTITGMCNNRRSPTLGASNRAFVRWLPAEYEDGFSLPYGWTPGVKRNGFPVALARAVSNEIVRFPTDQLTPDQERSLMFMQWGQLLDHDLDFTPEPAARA
Method: MPO chlorinating activity was evaluated fluorometrically using Celestine Blue B (CB) which was oxidized to fluorescent glycol (λex = 487 nm, λem = 578 nm) by taurine N-chloramine produced in the reaction of taurine with HOCl generated by MPO [39]. The assay was performed in 96-plate format. MPO was preincubated with peptides for 5 min in a volume of 100 μL, with the concentrations being: MPO, 1.6 nM heme and peptide, 16 nM–16 μM. Then, 100 μL aliquots of CB-containing mix (CB, 400 µM; H2O2, 100 µM; taurine, 4 mM; KI, 10 µM; NaCl, 300 mM; 50 mM Na-acetate buffer, pH 5.5) were added to MPO/peptide and to 100 μL of HOCl standards (0–150 μM). The fluorescence measurement was made with a CLARIOstar multimodal plate reader (BMG Labtech, Ortenberg, Germany) at 15 min after the reaction started. Fluorescence intensity detected for HOCl standards of HOCl was used for calculating the chlorinating activity as mole of HOCl per mole of MPO heme per second. To determine the type of CAMP-induced inhibition, KM and Vmax were obtained by varying substrates of MPO: NaCl in a final concentration from 25 to 300 mM, or H2O2 in a final concentration from 5 to 80 µM.
(§1) The Hannes-Wolf plots were made as ([Substrate]/V = f([Substrate]). KM was equal in magnitude to the intercept made on the abscissa axis by the approximating straight line; Vmax was calculated as a reciprocal value of the straight-line slope. The inhibition constant (Ki) for noncompetitive inhibition was calculated as follows: Ki = [I]/((Vmax − Vmax’)/Vmax’); Ki for competitive inhibition was calculated as follows: Ki = [I]/((KM’ − KM)/KM); Ki for mixed inhibition was calculated as follows: Ki = [I]/(((KM’ − KM)/KM)^2 + ((Vmax − Vmax’)/Vmax’))^2)^0.5; and Ki for uncompetitive inhibition was calculated as follows: Ki = [I]/(((KM − KM’)/KM’)^2 + ((Vmax – Vmax’)/Vmax’))^2)^0.5, where [I]—concentration of inhibitor (CAMP), KM—Michaelis constant without inhibitor, Vmax—maximal rate without inhibitor, KM’—Michaelis constant in the presence of inhibitor, Vmax’—maximal rate in the presence of inhibitor.
Chlorinating activity is a distinctive feature of MPO as compared with other peroxidases and it is an important property, enabling MPO to combat microbes. We tested whether the inhibitory effects of pept_1545 and Hm-AMP8 on peroxidase activity extend to MPO chlorinating activity. Chlorinating activity was measured using a fluorometric CB-based assay. To determine the concentration dependence of the effect of CAMPs on MPO chlorinating activity, the 0.008–8 μM concentration range (corresponding to 10–10,000 peptide molecules per heme) was used.

myeloperoxidase (MPO) [2] = target: T1, myeloperoxidase (MPO); assay: Measurement of sulfhydryl groups with MPO/H2O2 (DTNB); type: biochemical; details: for free sulfhydryl groups, percentage relative to CAMP + MPO without H2O2: 150 μM peptide, 1 μM MPO heme, 100 μM H2O2, 10 mM Na-phosphate pH 7.4, mean ± SD, * p < 0.05 where marked
Method: The peroxidase reaction was carried out in 10 mM Na-phosphate buffer, pH 7.4 (containing 0.2 mM DTPA), in a volume of 60 μl placed in the wells of a 96-well plate. Peptides were added to MPO (1 μM heme) to a concentration of 150 μM. Following 5 min of incubation, H2O2 (100 μM, final) was added to test samples to trigger the reaction. Control samples were the same except H2O2. The content of free sulfhydryl groups was estimated spectrophotometrically by using 5,5′-dithiobis(2-nitrobenzoic acid) (DTNB, Ellman’s reagent) prepared in 0.4 M Tris-HCl buffer, pH 9.0. At a desired time after the reaction was started, 120 μL aliquots of freshly prepared DTNB-containing buffer were added to one part of samples (160 μM DTNB, final) and […] of the buffer without DTNB was added to another part of the same samples. […] Absorbance in the absence of DTNB was subtracted from that in the presence of DTNB. The loss of sulfhydryl groups was expressed as a percentage relative to controls incubated without H2O2.
To determine an estimation of whether the cysteine residue of pept_1545 and Hm-AMP8 participated in MPO-mediated reactions, we compared the content of free sulfhydryl groups in the reaction mixtures of peptides (150 μM) with the MPO/H2O2 system (1 μM heme, 100 μM H2O2) and control samples containing peptides plus MPO with no added H2O2. Measurements of sulfhydryl groups were made at 5 min and 90 min of incubation (Table 2).

myeloperoxidase (MPO) [3] = target: T1, myeloperoxidase (MPO); assay: MPO peroxidase activity (Amplex Red assay); type: biochemical; details: for pIC50: 50 μM Amplex Red, 25 μM H2O2, 50 mM K-phosphate pH 7.4, 5 min preincubation; for pKi: 20 μM pept_1545 or 2 μM Hm-AMP8, 50 mM K-phosphate pH 7.4, Hanes–Woolf
Method: MPO peroxidase activity was evaluated fluorometrically using Amplex Red^TM reagent which was oxidized by MPO to the fluorescent resorufin (λex = 530 nm, λem = 590 nm). The assay was performed in 96-plate format. The final reaction mixture in 50 mM K-phosphate buffer (pH 7.4) was as follows: MPO, 8 nM heme; peptide, […]; H2O2, 25 μM; Amplex Red reagent, 50 μM. MPO was preincubated with peptides for 5 min in a volume of 100 μl. Then, Amplex Red was added, and the enzymatic reaction was initiated by adding H2O2 (a final probe volume of 200 μL per well). The fluorescence measurement was made with a CLARIOstar multimodal plate reader (BMG Labtech, Ortenberg, Germany) at 5 min after the beginning of the reaction. To determine the type of CAMP-induced inhibition, KM and Vmax were obtained by varying substrates of MPO: Amplex Red in a final concentration from 1 to 62.5 μM, or H2O2 in a final concentration from 0.625 to 20 μM.
as §1
From the experiments with varying concentrations of H2O2 (0.01–200 μM) and Amplex Red (6.25–100 μM), the optimal concentrations of 25 μM H2O2 and 50 μM Amplex Red were chosen for further work. The 0.8–50 μM concentration range (corresponding to 100–6250 peptide molecules per heme) was used to determine the concentration dependence of the effect of CAMPs on peroxidase activity of MPO.

MPO [4] = details: cited from earlier work; for peroxidase substrate behaviour of free amino acid: literature statement
Excerpt: Free tyrosine is known to be a peroxidase substrate, reacting rapidly with both Compounds I and II. […] MPO-catalyzed oxidation of tyrosine occurs in the absence as well as presence of chloride, which is accompanied by hastened HOCl production. […] In addition to cysteine, pept_1545 contains tryptophan, another redox active amino acid. […] Fluorescence measurements (λex = 290 nm, λem = 310–450 nm) were ...

MPO [5] = details: MPO/H2O2 system; ref [57]; cited from earlier work
[6] = 8 μM pept_1545 or 0.8 μM Hm-AMP8, 25–300 mM NaCl, 50 μM H2O2, 0.8 nM MPO, 50 mM Na-acetate pH 5.5, Hanes–Woolf, read-out: Inhibition constant (Ki) towards Cl−
[7] = Ki towards H2O2 and Cl– (abstract, range over both substrates), chlorinating activity, pH 5.5
[8] = 0.625–20 μM H2O2, 50 μM Amplex Red, 8 nM MPO heme, read-out: Inhibition constant (Ki) towards H2O2, peroxidase activity
[9] = 1–62.5 μM Amplex Red, 25 μM H2O2, 8 nM MPO heme, read-out: Inhibition constant (Ki) towards Amplex Red

CC[C@H](C)[C@H](NC(=O)[C@H](C)NC(=O)[C@H](CC(N)=O)NC(=O)[C@H](Cc1ccc(O)cc1)NC(=O)[C@@H]1CCCN1C(=O)[C@@H](NC(=O)[C@H](CCCCN)NC(=O)[C@H](Cc1ccc(O)cc1)NC(=O)[C@@H](NC(=O)[C@@H](NC(=O)[C@H](C)NC(=O)[C@@H](N)CCCNC(=N)N)C(C)C)[C@@H](C)CC)[C@@H](C)CC)C(=O)N[C@@H](C)C(=O)N[C@@H](CO)C(=O)N[C@@H](CCCNC(=N)N)C(=O)N[C@@H](Cc1c[nH]c2ccccc12)C(=O)N[C@H](C(=O)N[C@H](C(=O)N[C@@H](C)C(=O)N1CCC[C@H]1C(=O)N[C@@H](CCCCN)C(=O)N[C@@H](CCCCN)C(=O)N[C@@H](CS)C(N)=O)[C@@H](C)CC)[C@@H](C)CC [Hm-AMP8] (H-RAVIYKIPYNAIASRWIIAPKKC-NH2) gave a pIC50 (myeloperoxidase (MPO) [1]) of 6.52, a pKi (myeloperoxidase (MPO) [1]; 8 μM pept_1545 or 0.8 μM Hm-AMP8, 5–80 μM H2O2, 150 mM NaCl, 0.8 nM MPO, 50 mM Na-acetate pH 5.5, Hanes–Woolf, read-out: Inhibition constant (Ki) towards H2O2, chlorinating activity) of 6.55 and a pKi (myeloperoxidase (MPO) [1]; [6]) of 6.38. The pKi (myeloperoxidase (MPO) [1]; [7]) was 6.40 to 6.52, the “free sulfhydryl groups, percentage relative to CAMP + MPO without H2O2” value (myeloperoxidase (MPO) [2]; 5 min incubation) was 93 ± 5% and the “free sulfhydryl groups, percentage relative to CAMP + MPO without H2O2” value (myeloperoxidase (MPO) [2]; 90 min incubation) was “* 79 ± 6%”. For the same compound, the pIC50 (myeloperoxidase (MPO) [3]; 8 nM MPO heme) was 5.77 and 5.70, the pKi (myeloperoxidase (MPO) [3]; [8]) was 5.75 and the pKi (myeloperoxidase (MPO) [3]; [9]) was 5.96.

In the case of N[C@@H](CS)C(=O)O [cysteine], the “bimolecular rate constant for reaction with Compound I” value (MPO [4]; free cysteine, ref [50]) is given as 4100 M⁻¹ s⁻¹, the “bimolecular rate constant for reaction with Compound II” value (MPO [4]; free cysteine, ref [50]) is given as < 10 M⁻¹ s⁻¹ and the “peroxidase substrate behaviour of free amino acid” value (MPO [4]) is given as “poor peroxidase substrate”.

For CC[C@H](C)[C@H](NC(=O)[C@H](C)NC(=O)[C@H](CCCCN)NC(=O)CNC(=O)[C@@H](NC(=O)[C@H](CC(C)C)NC(=O)[C@@H](N)Cc1ccccc1)[C@@H](C)CC)C(=O)N[C@@H](CCCCN)C(=O)N[C@@H](CCCNC(=N)N)C(=O)N[C@@H](CCCCN)C(=O)N[C@@H](Cc1ccccc1)C(=O)N[C@@H](CS)C(=O)N[C@@H](CC(C)C)C(=O)N[C@@H](CCCNC(=N)N)C(=O)N[C@@H](CO)C(=O)N[C@H](C(=O)N[C@@H](Cc1c[nH]c2ccccc12)C(=O)N[C@@H](CC(N)=O)C(=O)N[C@@H](C)C(N)=O)C(C)C [pept_1545] (H-FLIGKAIKRKFCLRSVWNA-NH2), the pIC50 (myeloperoxidase (MPO) [1]) was 5.13, the pKi (myeloperoxidase (MPO) [1]; [6]) was 4.71 and the pKi (myeloperoxidase (MPO) [1]; [7]) was 4.70 to 4.96. For the same compound, the “decrease in amount of –SH groups” value (myeloperoxidase (MPO) [2]; 5 min incubation with MPO/H2O2) was “about 20%”, the “free sulfhydryl groups, percentage relative to CAMP + MPO without H2O2” value (myeloperoxidase (MPO) [2]; 5 min incubation) was “* 80 ± 4%” and the “free sulfhydryl groups, percentage relative to CAMP + MPO without H2O2” value (myeloperoxidase (MPO) [2]; 90 min incubation) was “* 76 ± 5%”. It also gave a pIC50 (myeloperoxidase (MPO) [3]; 8 nM MPO heme) of 4.95, a pKi (myeloperoxidase (MPO) [3]; [8]) of 4.28 and a pKi (myeloperoxidase (MPO) [3]; [9]) of 4.32.

In the case of N[C@@H](Cc1c[nH]c2ccccc12)C(=O)O [tryptophan], the “peroxidase substrate behaviour of free amino acid” value (MPO [4]) is listed as “poor peroxidase substrate”.

For N[C@@H](Cc1ccc(O)cc1)C(=O)O [tyrosine], the “bimolecular rate constant for reaction with Compound I” value (MPO [4]; free tyrosine, ref [42]) is given as 770000 M⁻¹ s⁻¹, the “bimolecular rate constant for reaction with Compound II” value (MPO [4]; free tyrosine, ref [42]) is given as 16000 M⁻¹ s⁻¹ and the “peroxidase substrate behaviour of free amino acid” value (MPO [4]) is given as “accelerates MPO turnover”.

In the case of “N-acetyl lysyltyrosylcysteine amide [KYC]”, the formation of dityrosine (MPO [5]) is listed as “formation of dityrosine only by KYS” and the “oxidation of tyrosine residues by MPO” value (MPO [5]) is listed as “MPO oxidized tyrosine residues in both KYC and KYS”.

In the case of N-acetyl lysyltyrosylserine amide [KYS], the formation of dityrosine (MPO [5]) is given as “formation of dityrosine only by KYS” and the “oxidation of tyrosine residues by MPO” value (MPO [5]) is given as “MPO oxidized tyrosine residues in both KYC and KYS”.

From PMC9774438, “Effects of Synthetic Short Cationic Antimicrobial Peptides on the Catalytic Activity of Myeloperoxidase, Reducing Its Oxidative Capacity” (Antioxidants, 2022)
